Laboratory results: US9676715B2, “Bis-indolic derivatives, a process for preparing the same and their uses as a drug” (UNIVERSITE JOSEPH FOURIER, priority 2011, dated 2017)
Values after ≈ are worked out from the molar mass of the structure shown. Where two headings read alike, the source gives them in different places.

Assays:
[1] = test system: S. aureus ATCC 106414 (VISA); assay: MIC, microdilution method (9.1); format: cell-based, Staphylococcus aureus; details: read after 18 h
Procedure, shortened: (§1)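 CLSI broth microdilution in Mueller Hinton broth, final inoculum 5×10^5 CFU/ml, with two-fold compound dilutions (0.50-128 mg/L final). Incubation at 37° C in ambient air, or 5% CO2 with 10% sheep blood for fastidious species.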

[2] = test system: S. aureus ATCC 25923; assay: MIC, microdilution method (9.1); format: cell-based, Staphylococcus aureus
Procedure, shortened: as §1

[3] = test system: S. aureus ATCC 29213; assay: MIC, microdilution method (9.1); format: cell-based, Staphylococcus aureus
Procedure, shortened: as §1

[4] = test system: S. aureus ATCC 33592 (MRSA); assay: MIC, microdilution method (9.1); format: cell-based, Staphylococcus aureus; details: read after 18 h
Procedure, shortened: as §1

[5] = test system: S. aureus ATCC 6538; assay: MIC, microdilution method (9.1); format: cell-based, Staphylococcus aureus
Procedure, shortened: as §1

[6] = test system: S. aureus ATCC 9144; assay: MIC, microdilution method (9.1); format: cell-based, Staphylococcus aureus
Procedure, shortened: as §1

[7] = test system: S. aureus CIP 103428; assay: MIC, microdilution method (9.1); format: cell-based, Staphylococcus aureus
Procedure, shortened: as §1

[8] = test system: S. aureus CIP 65.25 (MRSA); assay: MIC, microdilution method (9.1); format: cell-based, Staphylococcus aureus; details: read after 18 h
Procedure, shortened: as §1

[9] = test system: S. aureus CIP 65.6; assay: MIC, microdilution method (9.1); format: cell-based, Staphylococcus aureus
Procedure, shortened: as §1

[10] = test system: S. aureus SA-1199B; assay: MIC, microdilution method (9.1); format: cell-based, Staphylococcus aureus
Procedure, shortened: as §1

[11] = test system: S. epidermidis ATCC 12228; assay: MIC, microdilution method (9.1); format: cell-based, Staphylococcus epidermidis
Procedure, shortened: as §1

[12] = test system: S. epidermidis CIP 103627; assay: MIC, microdilution method (9.1); format: cell-based, Staphylococcus epidermidis
Procedure, shortened: as §1

[13] = test system: S. epidermidis CIP 81.55; assay: MIC, microdilution method (9.1); format: cell-based, Staphylococcus epidermidis
Procedure, shortened: as §1

[14] = test system: S. pneumoniae ATCC 6303; assay: MIC, microdilution method (9.1); format: cell-based, Streptococcus pneumoniae; details: 5% CO2, 18 h
Procedure, shortened: as §1

[15] = test system: S. agalactiae (group B) ATCC 12400; assay: MIC, microdilution method (9.1); format: cell-based, Streptococcus agalactiae
Procedure, shortened: as §1

[16] = test system: S. pyogenes (group A) CIP 104226; assay: MIC, microdilution method (9.1); format: cell-based, Streptococcus pyogenes
Procedure, shortened: as §1

[17] = test system: S. mitis CIP 103335; assay: MIC, microdilution method (9.1); format: cell-based, Streptococcus mitis
Procedure, shortened: as §1

[18] = test system: E. faecium CIP 54.32; assay: MIC, microdilution method (9.1); format: cell-based, Enterococcus faecium
Procedure, shortened: as §1

[19] = test system: E. faecalis ATCC 29212; assay: MIC, microdilution method (9.1); format: cell-based, Enterococcus faecalis
Procedure, shortened: as §1

[20] = test system: Acinetobacter baumanii ATCC 19606; assay: MIC, microdilution method (9.1); format: cell-based
Procedure, shortened: as §1

[21] = test system: Bacillus subtilis CIP 5262; assay: MIC, microdilution method (9.1); format: cell-based
Procedure, shortened: as §1

[22] = test system: Klebsiella pneumoniae API ATCC 35657; assay: MIC, microdilution method (9.1); format: cell-based
Procedure, shortened: as §1

[23] = test system: Listeria innocua CIP 80.11; assay: MIC, microdilution method (9.1); format: cell-based
Procedure, shortened: as §1

[24] = test system: Pseudomonas aeruginosa CIP 5933; assay: MIC, microdilution method (9.1); format: cell-based
Procedure, shortened: as §1

[25] = test system: 29 bacterial strains belonging to 17 different species; assay: MIC determination, overall statements on the bacterial panel; format: cell-based; details: summary of MIC results
Experimental: The microdilution method recommended by the Clinical and Laboratory Standard Institute [M07-A8, Vol. 29, No. 2] was used. The activity of indolic compounds was tested against 29 bacterial strains belonging to 17 different species and 12 different genera (Staphylococcus, Streptococcus, Enterococcus, Listeria, Bacillus, Haemophilus, Escherichia, Klebsiella, Enterobacter, Serratia, Pseudomonas, and Acinetobacter). Bacterial inocula were prepared in Mueller Hinton broth (MH2, bioMérieux, Marcy L'Etoile, France), supplemented with 10% sheep blood for fastidious species (i.e., Streptococcus pneumoniae and Haemophilus influenzae). They were dispensed in 96 well microtiter plates (5×10^5 CFU/ml of final inoculum). Indolic compounds were added to the wells as to obtain two-fold serial concentrations (0.50-128 mg/L of final concentrations). Plates were incubated at 37° C. in ambient air, or at 37° C. in 5% CO2 enriched atmosphere for fastidious species. […] Drug-free cultures served as growth controls. Cultures receiving gentamicin, ciprofloxacin or cefotaxime served as positive controls.

[26] = test system: Enterobacter cloacae ATCC13047; assay: MIC, microdilution method (9.1); format: cell-based; details: 18 h
Procedure, shortened: as §1

[27] = test system: Escherichia coli ATCC 25922; assay: MIC, microdilution method (9.1); format: cell-based; details: ATCC25922, 18 h
Procedure, shortened: as §1

[28] = test system: Haemophilus influenzae ATCC 49766; assay: MIC, microdilution method (9.1); format: cell-based; details: Haemophilus influenzae, ATCC49766, 18 h
Procedure, shortened: as §1

[29] = test system: S. pneumoniae ATCC 49619; assay: MIC, microdilution method (9.1); format: cell-based; details: Streptococcus pneumoniae, ATCC49619, 10% sheep blood, 5% CO2, 18 h
Procedure, shortened: as §1

[30] = test system: Serratia marcescens CIP 103551; assay: MIC, microdilution method (9.1); format: cell-based; details: CIP103551, 18 h
Procedure, shortened: as §1

[31] = Staphylococcus aureus, read-out: MIC

tert-Butyl (2-(p-bromo)benzamido-2-(5-bromo-1H-indol-3-yl)ethyl)carbamate [Compound 8a]
MIC [1]: >32 µg/mL
MIC ([2]; read after 18 h): >128(>32) mg/L
MIC ([3]; read after 18 h): >32 µg/mL
MIC [4]: >32 µg/mL
MIC ([5]; read after 18 h): >32 µg/mL
MIC ([6]; read after 18 h): >32 µg/mL
MIC ([7]; read after 18 h): >32 µg/mL
MIC [8]: >32 µg/mL
MIC ([9]; read after 18 h): >32 µg/mL
MIC ([10]; S. aureus SA-1199B, read after 18 h): >32 µg/mL
MIC ([11]; read after 18 h): >32 µg/mL
MIC ([12]; read after 18 h): >32 µg/mL
MIC ([13]; read after 18 h): >32 µg/mL
MIC ([14]; 10% sheep blood): 128 µg/mL
MIC ([15]; 18 h): 64 µg/mL
MIC ([16]; 18 h): >128 µg/mL
MIC ([17]; 18 h): >128 µg/mL
MIC ([18]; 18 h): >128 µg/mL
MIC ([19]; 18 h): >128 µg/mL
MIC ([20]; 18 h): >128(>32) mg/L
MIC ([21]; 18 h): >128 µg/mL
MIC ([22]; 18 h): 64 µg/mL
MIC ([23]; 18 h): >128 µg/mL
MIC ([24]; 18 h): >128(>32) mg/L
intrinsic antibacterial activity (in words) [25]: lack of intrinsic antibacterial activity

CC(C)(C)OC(=O)NCC(NC(=O)C(F)(F)F)c1c[nH]c2ccc(Br)cc12 (stereo not shown) [Compound 9, tert-Butyl (2-(5-bromo-1H-indol-3-yl)-2-(2,2,2-trifluoroacetamido)ethyl)carbamate]
MIC [1, 31]: 128 µg/mL (≈ 284 µM)
MIC ([2]; Staphylococcus aureus, ATCC25923, read after 18 h, read-out: MIC): > 128 µg/mL
MIC ([3]; Staphylococcus aureus, ATCC29213, read after 18 h, read-out: MIC): 64 µg/mL (≈ 142 µM)
MIC [4, 31]: 128 µg/mL (≈ 284 µM)
MIC ([5]; Staphylococcus aureus, ATCC6538, read after 18 h, read-out: MIC): 128 µg/mL (≈ 284 µM)
MIC ([6]; Staphylococcus aureus, ATCC9144, read after 18 h, read-out: MIC): > 128 µg/mL
MIC ([7]; Staphylococcus aureus, CIP103428, read after 18 h, read-out: MIC): 128 µg/mL (≈ 284 µM)
MIC [8, 31]: 128 µg/mL (≈ 284 µM)
MIC ([9]; Staphylococcus aureus, CIP65, read after 18 h, read-out: MIC): 128 µg/mL (≈ 284 µM)
MIC ([10]; Staphylococcus aureus, SA1199B, 18 h): 128 µg/mL (≈ 284 µM)
MIC ([11]; Staphylococcus epidermidis, ATCC12228, read after 18 h, read-out: MIC): > 128 µg/mL
MIC ([12]; Staphylococcus epidermidis, CIP103627, read after 18 h, read-out: MIC): > 128 µg/mL
MIC ([13]; Staphylococcus epidermidis, CIP81, read after 18 h, read-out: MIC): > 128 µg/mL
MIC ([14]; Streptococcus pneumoniae, ATCC6303, 10% sheep blood, read-out: MIC): > 128 µg/mL
MIC ([15]; Streptococcus agalactiae, ATCC12400, 18 h, read-out: MIC): > 128 µg/mL
MIC ([16]; Streptococcus pyogenes, CIP104226, 18 h, read-out: MIC): > 128 µg/mL
MIC ([17]; Streptococcus mitis, CIP103335, 18 h, read-out: MIC): > 128 µg/mL
MIC ([18]; Enterococcus faecium, CIP54, 18 h, read-out: MIC): > 128 µg/mL
MIC ([19]; Enterococcus faecalis, ATCC29212, 18 h, read-out: MIC): > 128 µg/mL
MIC ([20]; Acinetobacter baumannii, ATCC19606, 18 h, read-out: MIC): > 128 µg/mL
MIC ([21]; CIP5262, 18 h, read-out: MIC): 128 µg/mL (≈ 284 µM)
MIC [26]: > 128 µg/mL
MIC [27]: > 128 µg/mL
MIC [28]: > 128 µg/mL
MIC ([22]; ATCC35657, 18 h, read-out: MIC): > 128 µg/mL
MIC ([23]; CIP80, 18 h, read-out: MIC): > 128 µg/mL
MIC ([24]; CIP5933, 18 h, read-out: MIC): > 128 µg/mL
MIC [29]: > 128 µg/mL
MIC [30]: > 128 µg/mL
intrinsic antibacterial activity (in words) [25]: lack of intrinsic antibacterial activity
